Data on one molecule can be found in BindingDB's records for doi:10.1016/s0960-894x(03)00628-0 (Wyeth Research, 2003).

This assay in a line: Inhibition of Src protein tyrosine kinase.

The term IC50 denotes the concentration that gives 50% inhibition. Read a high IC50 as lower potency. The molecule `COCCOc1cc2nc3ncnc(Nc4cc(OC)c(Cl)cc4Cl)c3cc2cc1OC` [(2,4-Dichloro-5-methoxy-phenyl)-[7-methoxy-8-(2-methoxy-ethoxy)-pyrimido[4,5-b]quinolin-4-yl]-amine] returned an IC50 of more than 10 µM.
